17 molecules from patent US20240400586A1, “HETEROARYL DERIVATIVE PARP INHIBITOR AND USE THEREOF” (HAISCO PHARMACEUTICAL GROUP CO., LTD., priority 2021, published 2024) can be followed below.

In assay [1] the test system is breast tumor cells MDA-MB-436. Briefly: MDA-MB-436 cell activity test (CellTiter-Glo, 7 days). The format is cell-based. The settings on record: Homo sapiens, MDA-MB-436, 168 h, 7 days incubation; for inhibition at 10 µM: read-out: MDA-MB-436 Max inh. % 10 μM; for IC50: read-out: MDA-MB-436 cell inhibitory activity IC50. Here is the method:
Breast tumor cells MDA-MB-436 were purchased from ATCC, the culture medium was Leibovitz's L-15+10% FBS, and the cells were cultured in a CO2-free incubator at 37° C. On day 1, the cells in the exponential growth phase were collected, and the cell suspension was adjusted to 4000 cells/135 μL with the culture medium. 135 μL of the cell suspension was added to each well of a 96-well cell culture plate and incubated overnight. On day 2, compounds at different concentrations were added, and the plate was placed in the incubator and incubated for 7 days. After the incubation was completed, according to operation instructions for a CellTiter-Glo kit (Promega, G7573), 75 μL of CTG solution, which was already pre-melted and equilibrated to room temperature, was added to each well, and the mixture was uniformly mixed for 2 min using a microplate shaker. The plate was placed at room temperature for 10 min, and then […] were measured using an Envision2104 plate reader (PerkinElmer). The inhibition rate was calculated using formula (1), where RLUcompound was the readout of the drug treated group, RLUcontrol was the average value of the vehicle control group, and RLUblank was the average value of the cell-free well. The IC50 value was calculated using GraphPad Prism software.

In the next assay the target is PARP-1 enzyme (Homo sapiens (Human), UniProt P09874). Put plainly: PARP1 enzyme activity test (BPS Bioscience chemiluminescence kit). The format is biochemical. The text has this:
Inhibition %=(1−(RLUsample−RLUmin)/(RLUmax−RLUmin))×100% (formula 1)

Chain of PARP-1 enzyme (P09874 whole entry): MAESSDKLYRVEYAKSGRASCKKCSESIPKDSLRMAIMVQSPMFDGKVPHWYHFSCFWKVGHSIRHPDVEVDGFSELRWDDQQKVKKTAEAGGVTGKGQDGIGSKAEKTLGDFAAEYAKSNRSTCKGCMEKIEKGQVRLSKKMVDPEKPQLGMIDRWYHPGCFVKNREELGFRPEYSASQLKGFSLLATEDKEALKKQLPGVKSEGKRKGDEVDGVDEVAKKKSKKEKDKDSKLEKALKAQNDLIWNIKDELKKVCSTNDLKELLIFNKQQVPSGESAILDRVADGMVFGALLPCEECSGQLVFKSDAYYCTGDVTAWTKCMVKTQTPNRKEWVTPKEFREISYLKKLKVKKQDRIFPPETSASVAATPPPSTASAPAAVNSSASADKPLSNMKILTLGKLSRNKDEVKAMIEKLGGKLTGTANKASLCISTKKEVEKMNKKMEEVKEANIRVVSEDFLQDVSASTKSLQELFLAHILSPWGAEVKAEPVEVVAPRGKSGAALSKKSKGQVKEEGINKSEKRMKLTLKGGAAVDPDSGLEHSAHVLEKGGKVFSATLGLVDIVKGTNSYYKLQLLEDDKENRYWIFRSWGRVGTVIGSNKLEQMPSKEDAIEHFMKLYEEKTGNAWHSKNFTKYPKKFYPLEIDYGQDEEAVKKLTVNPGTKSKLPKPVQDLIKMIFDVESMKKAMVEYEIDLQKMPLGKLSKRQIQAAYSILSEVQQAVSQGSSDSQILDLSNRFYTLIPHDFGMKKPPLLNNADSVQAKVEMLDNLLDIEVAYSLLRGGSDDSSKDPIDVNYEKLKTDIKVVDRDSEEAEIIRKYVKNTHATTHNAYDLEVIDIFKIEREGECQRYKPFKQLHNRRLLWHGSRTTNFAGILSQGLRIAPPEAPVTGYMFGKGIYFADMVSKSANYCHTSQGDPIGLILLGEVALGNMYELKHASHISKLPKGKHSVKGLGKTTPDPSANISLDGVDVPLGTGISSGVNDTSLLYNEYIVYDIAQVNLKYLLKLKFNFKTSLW

The term IC50 denotes the midpoint of a concentration-inhibition curve. On to `CCc1cc2ncc(CN3CCN(c4ccc(NC(=O)[C@H]5CC5(F)F)nc4)CC3)cc2[nH]c1=O` (single isomer, unassigned) [Compound 51], for which the inhibition at 10 µM in assay [1] is 95.6%. The 50% inhibitory concentration (IC50) in assay [1] is 8.5 nM; at PARP-1 enzyme, 0.66 nM.
The corresponding values for `CCc1cc2ncc(CN3CCN(c4cnc(C(=O)NC)c(F)c4)CC3)cc2[nH]c1=O` [Compound 6, 5-(4-((7-ethyl-6-oxo-5,6-dihydro-1,5-naphthyridin-3-yl)methyl)piperazin-1-yl)-3-fluoro-N-methylpicolinamide] are 85.7%, 10 nM and 0.56 nM.
The like results for `CCc1cc2ncc(CN3CCN(c4ccc(NC(=O)C5CC5)nc4)CC3)cc2[nH]c1=O` [Compound 9, N-(5-(4-((7-ethyl-6-oxo-5,6-dihydro-1,5-naphthyridin-3-yl)methyl)piperazin-1-yl)pyridin-2-yl)cyclopropanecarboxamide] were, in that order, 86.2%, 6 nM and 0.73 nM.
The corresponding values for `CCc1cc2ncc(CN3CCN(c4ccc(C(=O)NC5CCC5)nc4)CC3)cc2[nH]c1=O` [Compound 10, N-cyclobutyl-5-(4-((7-ethyl-6-oxo-5,6-dihydro-1,5-naphthyridin-3-yl)methyl)piperazin-1-yl)picolinamide] are 94.2%, 17 nM and 0.56 nM.
For the molecule `CCc1cc2ncc(CN3CCN(c4ccc(C(=O)N[C@@H]5C[C@@H]5F)nc4)CC3)cc2[nH]c1=O` [Compound 11, 5-(4-((7-ethyl-6-oxo-5,6-dihydro-1,5-naphthyridin-3-yl)methyl)piperazin-1-yl)-N-((1R,2S)-2-fluorocyclopropyl)picolinamide], the inhibition at 10 µM in assay [1] was 85.2%. Besides, the half-inhibitory concentration (IC50) came to 6 nM in assay [1] and 0.54 nM against PARP-1 enzyme.
The like results for `CCc1cc2ncc(CN3CCN(c4ccc(C(=O)NC5CNC5)nc4)CC3)cc2[nH]c1=O` [Compound 22, N-(azetidin-3-yl)-5-(4-((7-ethyl-6-oxo-5,6-dihydro-1,5-naphthyridin-3-yl)methyl)piperazin-1-yl)picolinamide] were, in that order, 89.4%, 12 nM and 0.51 nM.
The like results for `CCc1cc2ncc(CN3CCN(c4ccc(C(=O)Nc5cnn(C)c5)nc4)CC3)cc2[nH]c1=O` [Compound 23, 5-(4-((7-ethyl-6-oxo-5,6-dihydro-1,5-naphthyridin-3-yl)methyl)piperazin-1-yl)-N-(1-methyl-1H-pyrazol-4-yl)picolinamide] were, in that order, 84.2%, 1.4 nM and 0.67 nM.
On to `CCc1cc2ncc(CN3CCN(c4ccc(C(=O)NCCOC)nc4)CC3)cc2[nH]c1=O` [Compound 24, 5-(4-((7-ethyl-6-oxo-5,6-dihydro-1,5-naphthyridin-3-yl)methyl)piperazin-1-yl)-N-(2-methoxyethyl)picolinamide], for which, in assay [1], the inhibition at 10 µM was 82.3%. For the same molecule, the IC50 came out at 9 nM in assay [1] and 0.73 nM against PARP-1 enzyme.
The corresponding values for `CCc1cc2ncc(CN3CCN(c4ccc(C(=O)NC5CC(F)(F)C5)nc4)CC3)cc2[nH]c1=O` [Compound 25, N-(3,3-difluorocyclobutyl)-5-(4-((7-ethyl-6-oxo-5,6-dihydro-1,5-naphthyridin-3-yl)methyl)piperazin-1-yl)picolinamide] are 99%, 16 nM and 0.88 nM.
The corresponding values for `CCc1cc2ncc(CN3CCN(c4ccc(NC(=O)C5CC(F)(F)C5)nc4)CC3)cc2[nH]c1=O` [Compound 26, N-(5-(4-((7-ethyl-6-oxo-5,6-dihydro-1,5-naphthyridin-3-yl)methyl)piperazin-1-yl)pyridin-2-yl)-3,3-difluorocyclobutane-1-carboxamide] are 86.3%, 18 nM and 0.48 nM.
For `CCc1cc2ncc(CN3CCN(c4ccc(NC(=O)c5cnn(C)c5)nc4)CC3)cc2[nH]c1=O` [Compound 33, N-(5-(4-((7-ethyl-6-oxo-5,6-dihydro-1,5-naphthyridin-3-yl)methyl)piperazin-1-yl)pyridin-2-yl)-1-methyl-1H-pyrazole-4-carboxamide], in assay [1], the inhibition at 10 µM was found to be 90% and the IC50 was determined as 3.1 nM. This molecule also yielded an IC50 against PARP-1 enzyme of 0.74 nM.
The corresponding values for `CCc1cc2ncc(CN3CCN(c4ccc(NC(=O)OC5CC5)nc4)CC3)cc2[nH]c1=O` [Compound 37, Cyclopropyl(5-(4-((7-ethyl-6-oxo-5,6-dihydro-1,5-naphthyridin-3-yl)methyl)piperazin-1-yl)pyridin-2-yl)carbamate] are 93.7%, 18.9 nM and 0.96 nM.
The corresponding values for `CCc1cc2ncc(CN3CCN(c4ccc(C(=O)NC5CC6(CCC6)C5)nc4)CC3)cc2[nH]c1=O` [Compound 38, 5-(4-((7-ethyl-6-oxo-5,6-dihydro-1,5-naphthyridin-3-yl)methyl)piperazin-1-yl)-N-(spiro[3.3]heptan-2-yl)picolinamide] are 98.8%, 17.6 nM and 0.7 nM.
In the case of `CCc1cc2ncc(CN3CCN(c4ccc(C(=O)NC56CC(C5)C6)nc4)CC3)cc2[nH]c1=O` [Compound 39, N-(bicyclo[1.1.1]pentan-1-yl)-5-(4-((7-ethyl-6-oxo-5,6-dihydro-1,5-naphthyridin-3-yl)methyl)piperazin-1-yl)picolinamide], in assay [1], the inhibition at 10 µM came out at 99.1% and the IC50 is 1.2 nM. The molecule further showed an IC50 against PARP-1 enzyme of 0.77 nM.
The corresponding values for `CCc1cc2ncc(CN3CCN(c4ccc(C(=O)NCC5CC5)nc4)CC3)cc2[nH]c1=O` [Compound 40, N-(cyclopropylmethyl)-5-(4-((7-ethyl-6-oxo-5,6-dihydro-1,5-naphthyridin-3-yl)methyl)piperazin-1-yl)picolinamide] are 99.3%, 5.6 nM and 0.61 nM.
The like results for `CCc1cc2ncc(CN3CCN(c4ccc(C(=O)N[C@H]5C[C@H]5F)nc4)CC3)cc2[nH]c1=O` [Compound 41, 5-(4-((7-ethyl-6-oxo-5,6-dihydro-1,5-naphthyridin-3-yl)methyl)piperazin-1-yl)-N-((1S,2R)-2-fluorocyclopropyl)picolinamide] were, in that order, 92.1%, 2.3 nM and 0.84 nM.
The corresponding values for `CCc1cc2ncc(CN3CCN(c4ccc(-c5nnc(C)[nH]5)nc4)CC3)cc2[nH]c1=O` [Compound 42, 3-ethyl-7-((4-(6-(5-methyl-4H-1,2,4-triazol-3-yl)pyridin-3-yl)piperazin-1-yl)methyl)-1,5-naphthyridin-2 (1H)-one] are 84.1%, 24.1 nM and 0.67 nM.
